Source: US6479491B1, “Disubstituted morpholine, oxazepine or thiazepine derivatives, their preparation and their use as dopamine d4 receptor antagonists” (Neurosearch A/S, priority 1996, dated 2002)
Where a name gives a salt, the structure may show the parent alone.

Experiments:
D2 dopamine Receptors = biological target: T1, D2 dopamine Receptors (Rattus norvegicus, UniProt P61169); assay: In vitro inhibition of 3H-spiperone binding to D2 dopamine receptors; settings: for IC50: IC50 for inhibition of specific 3H-spiperone (0.2 nM) binding, corpus striatum of male Wistar rats
T1 construct: Corpus Striatum from male Wistar rats (150-200 g) is homogenized; from tissue; host or cells: rat corpus striatum
T1 sequence (P61169 whole entry): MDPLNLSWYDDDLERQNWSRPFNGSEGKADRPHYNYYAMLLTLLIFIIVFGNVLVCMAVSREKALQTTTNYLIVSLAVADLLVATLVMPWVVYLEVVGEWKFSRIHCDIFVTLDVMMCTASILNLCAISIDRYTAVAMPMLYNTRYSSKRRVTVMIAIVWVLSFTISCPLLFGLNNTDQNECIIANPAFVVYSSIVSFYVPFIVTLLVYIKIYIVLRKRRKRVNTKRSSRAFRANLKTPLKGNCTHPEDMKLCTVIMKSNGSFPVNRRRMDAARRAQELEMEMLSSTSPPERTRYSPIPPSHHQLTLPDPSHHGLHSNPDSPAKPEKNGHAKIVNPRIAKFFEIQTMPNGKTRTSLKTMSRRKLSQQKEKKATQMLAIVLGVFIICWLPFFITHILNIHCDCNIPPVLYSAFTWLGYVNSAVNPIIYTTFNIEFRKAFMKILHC
Experimental: I) In vitro Inhibition of ^3H-spiperone Binding to D2 dopamine Receptors
Tissue preparation: Preparations are performed at 0-4° C. unless otherwise indicated. Corpus Striatum from male Wistar rats (150-200 g) is homogenized for 5-10 sec in 10 ml KH2PO4 (50 mM, pH 7.4) using an Ultra-Turrax homogenizer. The suspension is centrifuged at 27,000×g for 15 min. The supematant is discarded and the pellet is resuspended in 50 mM KH2PO4, pH 7.4 (2000 ml per g of original tissue) and used for binding assays.
Assay: Aliquots of 0.5 ml tissue are added to 25 μl of test solution and 25 μl of ^3H-spiperone (0.2 nM, final concentration), mixed and incubated for 20 min at 37° C. Non-specific binding is determined using butadamol (1 μM, final concentration). After incubation the samples are placed on ice for 10 min. The assay is terminated by addition of 5 ml of ice-cold buffer and poured directly onto Whatman GF/C glass fibre filters (presoaked in 0.1% PEI for at least 20 min) under suction and immediately washed with 5 ml ice-cold buffer. The amount of radioactivity on the filters is determined by conventional liquid scintillation counting. Specific binding is total binding minus non-specific binding.

[1] = biological target: T2, D4.2 Dopamine Receptors (Human Recombinant) (Homo sapiens, UniProt P21917, DEL265-296); assay: In vitro inhibition of 3H-spiperone binding to D4.2 dopamine receptors (human recombinant); settings: for IC50: IC50 for inhibition of specific 3H-spiperone (0.5 nM) binding, membranes of CHO cells transfected with human recombinant D4.2 receptor
T2 construct: purchased RBI D-195; host or cells: Chinese Hamster Ovary (CHO) cells, transfected; supplied as frozen membranes
T2 sequence (P21917 with tags, fused parts or gaps DEL265-296): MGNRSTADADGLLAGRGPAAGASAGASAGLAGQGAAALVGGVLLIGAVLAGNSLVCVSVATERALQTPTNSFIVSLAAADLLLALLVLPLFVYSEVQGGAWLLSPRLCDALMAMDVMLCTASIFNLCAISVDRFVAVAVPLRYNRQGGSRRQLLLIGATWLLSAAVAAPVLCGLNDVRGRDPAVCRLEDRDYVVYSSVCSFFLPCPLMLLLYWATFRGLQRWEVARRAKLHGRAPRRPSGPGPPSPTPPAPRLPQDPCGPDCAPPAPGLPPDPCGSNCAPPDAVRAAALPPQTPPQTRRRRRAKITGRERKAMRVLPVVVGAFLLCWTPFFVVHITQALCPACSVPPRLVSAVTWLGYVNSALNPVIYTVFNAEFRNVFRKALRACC
Experimental: II) In Vitro Inhibition of ^3H-spiperone Binding to D4.2 Dopamine Receptors (Human Recombinant)
Membranes are suspended in 10 mM Tris-HCl (pH 7.2) containing 2 mM EDTA, and stored tightly sealed at −80° C.
Asssay: The membranes are thawed and diluted in incubation buffer (50 mM Tns-HCl, pH 7.4, containing 120 mM NaCl, 5 mM KCl, 5 mM MgCl2 and 1 mM EDTA) —0.25 ml of membranes to 4.75 ml of incubation buffer. Aliquots of 100 μl of diluted membranes are added to 100 μl of test solution and 50 μl of ^3H-spiperone (0.5nM, final concentration). Finally, 750 μl incubation buffer is added and the assay mixture is incubated for 60 min at 25° C. Non-specific binding is determined using haloperidol (1 μM, final concentration). After incubation the assay is terminated by rapid filtration over GF/C glass fibre filters (presoaked in 0.1% PEI for at least 20 min), then washed twice with 5 ml ice cold 50 mM Tris-HCl in 0.9% NaCl at pH 7.4. The amount of radioactivity on the filters is determined by conventional liquid scintillation counting. Specific binding is total binding minus non-specific binding.

SMILES	melting point	affinity for dopamine D2 receptors (in words) (D2 dopamine Receptors; qualitative statement)	affinity for dopamine D4 receptors (in words) ([1]; qualitative statement)	IC50 (D2 dopamine Receptors)	IC50 [1]
COc1ccc(N)cc1OCC1CN(Cc2ccc(Cl)cc2)CCO1.O=C(O)C(=O)O (racemic)	80 to 110 °C	–	–	–	–
CCOc1ccccc1OCC1CNCCO1 (stereo not shown) [Viloxazine, 2-[(2-ethoxy-phenoxy)methyl]morpholine, reference compound]	–	no or only low affinity	no or only low affinity	–	–
COc1cc(Cl)ccc1OCC1CN(Cc2ccc(Cl)cc2)CCCO1 (racemic) [(±)-2-[(4-chloro-2-methoxyphenoxy)methyl]-4-(4-chlorobenzyl)perhydro oxazepine oxalic acid salt]	–	–	–	> 10000 nM	2.5 nM
COc1cc(Cl)ccc1OCC1CN(Cc2ccc(Cl)cc2)CCO1 (racemic) [(±)-4-(4-Chlorobenzyl)-2-[(4-chloro-2-methoxyphenoxy)methyl]morpholine oxalic acid salt]	–	–	–	> 10000 nM	4 nM
